Assay results taken from patent US20090105270A1, “Kinase inhibition and anticancer therapy” (priority 2007, published 2009).

Assays:
MSK2(h) = MSK2(h) (Homo sapiens, UniProt O75676); assay: Upstate kinase activity inhibition assay MSK2(h); conditions: 40 min, read-out: percentage of enzyme activity that remains
SGK2(h) = SGK2(h) (Homo sapiens, UniProt Q9HBY8); assay: Upstate kinase activity inhibition assay SGK2(h); conditions: 40 min, read-out: percentage of enzyme activity that remains
EphA7(h) = molecular target: T1, EphA7(h) (Homo sapiens, UniProt Q15375); assay: Upstate kinase activity inhibition assay EphA7(h); format: biochemical; conditions: 40 min; read-out: percentage of enzyme activity that remains
T1 construct: purchased Upstate (KinaseProfiler service)

Plk3(h) = Plk3(h) (Homo sapiens, UniProt Q9H4B4); assay: Upstate kinase activity inhibition assay Plk3(h); conditions: 40 min, read-out: percentage of enzyme activity that remains
MST3(h) = MST3(h) (Homo sapiens, UniProt Q9Y6E0); assay: Upstate kinase activity inhibition assay MST3(h)
PAK5(h) = PAK5(h) (Homo sapiens, UniProt Q9P286); assay: Upstate kinase activity inhibition assay PAK5(h); conditions: 40 min, read-out: percentage of enzyme activity that remains
Rsk3(h) = Rsk3(h) (Homo sapiens, UniProt Q15349); assay: Upstate kinase activity inhibition assay Rsk3(h); conditions: 40 min, read-out: percentage of enzyme activity that remains
SAPK4(h) = SAPK4(h) (Homo sapiens, UniProt O15264); assay: Upstate kinase activity inhibition assay SAPK4(h); conditions: 40 min, read-out: percentage of enzyme activity that remains
PKCζ(h) = PKCζ(h) (Homo sapiens, UniProt Q05513); assay: Upstate kinase activity inhibition assay PKCζ(h); conditions: 40 min, read-out: percentage of enzyme activity that remains
TSSK1(h) = TSSK1(h) (Homo sapiens, UniProt Q9BXA7); assay: Upstate kinase activity inhibition assay TSSK1(h); conditions: 40 min, read-out: percentage of enzyme activity that remains
Fer(h) = molecular target: T2, Fer(h) (Homo sapiens, UniProt P16591); assay: Upstate kinase activity inhibition assay Fer(h); format: biochemical; conditions: 40 min; read-out: percentage of enzyme activity that remains
T2 construct: purchased Upstate (KinaseProfiler service)

HIPK1(h) = HIPK1(h) (Homo sapiens, UniProt Q86Z02); assay: Upstate kinase activity inhibition assay HIPK1(h); conditions: 40 min, read-out: percentage of enzyme activity that remains
PKCι(h) = PKCι(h) (Homo sapiens, UniProt P41743); assay: Upstate kinase activity inhibition assay PKCι(h); format: biochemical; conditions: 40 min; read-out: percentage of enzyme activity that remains
EphB2(h) = EphB2(h) (Homo sapiens, UniProt P29323); assay: Upstate kinase activity inhibition assay EphB2(h)
EphB2(h), sequence (P29323 19-1055): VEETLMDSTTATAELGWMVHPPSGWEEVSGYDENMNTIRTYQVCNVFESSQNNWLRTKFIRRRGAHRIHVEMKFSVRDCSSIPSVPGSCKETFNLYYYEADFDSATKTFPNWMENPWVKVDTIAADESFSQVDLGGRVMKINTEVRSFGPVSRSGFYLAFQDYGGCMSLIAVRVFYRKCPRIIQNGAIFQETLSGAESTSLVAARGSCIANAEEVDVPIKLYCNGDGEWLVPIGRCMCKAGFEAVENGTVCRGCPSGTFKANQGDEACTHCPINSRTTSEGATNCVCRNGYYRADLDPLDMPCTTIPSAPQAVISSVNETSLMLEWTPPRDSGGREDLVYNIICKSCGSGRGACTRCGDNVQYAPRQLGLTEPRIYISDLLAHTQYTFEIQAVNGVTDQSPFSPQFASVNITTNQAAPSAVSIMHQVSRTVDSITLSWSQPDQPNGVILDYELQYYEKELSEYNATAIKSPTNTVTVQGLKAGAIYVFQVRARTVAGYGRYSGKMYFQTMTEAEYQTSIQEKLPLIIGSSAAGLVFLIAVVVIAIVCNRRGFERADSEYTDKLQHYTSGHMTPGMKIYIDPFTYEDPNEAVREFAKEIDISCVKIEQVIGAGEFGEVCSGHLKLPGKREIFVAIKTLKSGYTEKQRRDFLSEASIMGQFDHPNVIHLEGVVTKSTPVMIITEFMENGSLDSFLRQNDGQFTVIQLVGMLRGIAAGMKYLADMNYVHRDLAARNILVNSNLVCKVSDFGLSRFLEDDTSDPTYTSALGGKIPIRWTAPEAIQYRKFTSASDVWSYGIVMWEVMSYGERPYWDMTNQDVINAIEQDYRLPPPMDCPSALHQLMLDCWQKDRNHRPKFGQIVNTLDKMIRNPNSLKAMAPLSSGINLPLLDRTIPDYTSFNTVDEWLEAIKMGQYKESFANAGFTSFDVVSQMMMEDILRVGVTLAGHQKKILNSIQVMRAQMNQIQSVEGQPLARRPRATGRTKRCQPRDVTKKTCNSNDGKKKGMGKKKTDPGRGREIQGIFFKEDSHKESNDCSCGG

Flt4(h) = Flt4(h) (Homo sapiens, UniProt P35916); assay: Upstate kinase activity inhibition assay Flt4(h); conditions: 40 min, read-out: percentage of enzyme activity that remains
NEK7(h) = NEK7(h) (Homo sapiens, UniProt Q8TDX7); assay: Upstate kinase activity inhibition assay NEK7(h); format: biochemical; conditions: 40 min; read-out: percentage of enzyme activity that remains
CK2(h) = CK2(h) (Homo sapiens, UniProt P68400); assay: Upstate kinase activity inhibition assay CK2(h); conditions: 40 min, read-out: percentage of enzyme activity that remains
SAPK3(h) = molecular target: T3, SAPK3(h) (Homo sapiens, UniProt P53778); assay: Upstate kinase activity inhibition assay SAPK3(h); format: biochemical; conditions: 40 min; read-out: percentage of enzyme activity that remains
T3 construct: purchased Upstate (KinaseProfiler service)

TrkB(h) = TrkB(h) (Homo sapiens, UniProt Q16620); assay: Upstate kinase activity inhibition assay TrkB(h); conditions: 40 min, read-out: percentage of enzyme activity that remains
TrkB(h), sequence (Q16620 32-822): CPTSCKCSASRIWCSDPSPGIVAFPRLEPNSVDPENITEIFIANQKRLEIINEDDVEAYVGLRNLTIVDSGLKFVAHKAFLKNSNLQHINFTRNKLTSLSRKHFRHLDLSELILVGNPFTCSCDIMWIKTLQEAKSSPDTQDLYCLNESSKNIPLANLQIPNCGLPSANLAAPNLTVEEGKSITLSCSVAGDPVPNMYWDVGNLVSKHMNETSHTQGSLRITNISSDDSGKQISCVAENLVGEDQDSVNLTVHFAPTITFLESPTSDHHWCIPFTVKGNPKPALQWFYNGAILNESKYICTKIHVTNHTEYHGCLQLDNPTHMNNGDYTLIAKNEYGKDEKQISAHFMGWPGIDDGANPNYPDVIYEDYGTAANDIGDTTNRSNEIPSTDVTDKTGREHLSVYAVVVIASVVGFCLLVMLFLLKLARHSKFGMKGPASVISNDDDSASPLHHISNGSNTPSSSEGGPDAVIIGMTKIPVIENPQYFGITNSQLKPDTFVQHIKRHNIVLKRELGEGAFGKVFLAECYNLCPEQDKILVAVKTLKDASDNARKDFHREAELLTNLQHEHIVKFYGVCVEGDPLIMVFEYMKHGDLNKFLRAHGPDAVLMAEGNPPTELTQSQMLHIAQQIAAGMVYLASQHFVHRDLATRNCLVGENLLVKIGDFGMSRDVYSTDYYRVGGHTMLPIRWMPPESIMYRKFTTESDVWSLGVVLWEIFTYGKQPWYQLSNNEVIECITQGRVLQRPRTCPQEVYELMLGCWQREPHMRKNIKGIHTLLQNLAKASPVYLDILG

STK33(h) = STK33(h) (Homo sapiens, UniProt Q9BYT3); assay: Upstate kinase activity inhibition assay STK33(h); conditions: 40 min, read-out: percentage of enzyme activity that remains
STK33(h), sequence (Q9BYT3 whole entry): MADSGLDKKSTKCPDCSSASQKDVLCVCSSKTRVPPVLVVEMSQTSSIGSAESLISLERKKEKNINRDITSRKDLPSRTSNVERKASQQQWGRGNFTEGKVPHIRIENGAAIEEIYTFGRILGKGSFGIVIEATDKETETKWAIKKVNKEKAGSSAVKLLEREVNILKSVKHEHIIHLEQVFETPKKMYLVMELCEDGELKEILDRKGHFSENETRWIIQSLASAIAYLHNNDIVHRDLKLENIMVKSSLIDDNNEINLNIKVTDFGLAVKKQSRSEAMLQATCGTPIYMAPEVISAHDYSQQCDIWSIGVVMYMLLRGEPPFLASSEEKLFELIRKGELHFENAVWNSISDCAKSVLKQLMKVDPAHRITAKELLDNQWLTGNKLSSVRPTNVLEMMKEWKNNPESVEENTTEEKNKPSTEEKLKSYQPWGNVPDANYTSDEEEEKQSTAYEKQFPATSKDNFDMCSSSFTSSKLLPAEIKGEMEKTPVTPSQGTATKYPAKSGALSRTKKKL

Rsk2(h) = Rsk2(h) (Homo sapiens, UniProt P51812); assay: Upstate kinase activity inhibition assay Rsk2(h); conditions: 40 min, read-out: percentage of enzyme activity that remains
Rsk2(h), sequence (P51812 whole entry): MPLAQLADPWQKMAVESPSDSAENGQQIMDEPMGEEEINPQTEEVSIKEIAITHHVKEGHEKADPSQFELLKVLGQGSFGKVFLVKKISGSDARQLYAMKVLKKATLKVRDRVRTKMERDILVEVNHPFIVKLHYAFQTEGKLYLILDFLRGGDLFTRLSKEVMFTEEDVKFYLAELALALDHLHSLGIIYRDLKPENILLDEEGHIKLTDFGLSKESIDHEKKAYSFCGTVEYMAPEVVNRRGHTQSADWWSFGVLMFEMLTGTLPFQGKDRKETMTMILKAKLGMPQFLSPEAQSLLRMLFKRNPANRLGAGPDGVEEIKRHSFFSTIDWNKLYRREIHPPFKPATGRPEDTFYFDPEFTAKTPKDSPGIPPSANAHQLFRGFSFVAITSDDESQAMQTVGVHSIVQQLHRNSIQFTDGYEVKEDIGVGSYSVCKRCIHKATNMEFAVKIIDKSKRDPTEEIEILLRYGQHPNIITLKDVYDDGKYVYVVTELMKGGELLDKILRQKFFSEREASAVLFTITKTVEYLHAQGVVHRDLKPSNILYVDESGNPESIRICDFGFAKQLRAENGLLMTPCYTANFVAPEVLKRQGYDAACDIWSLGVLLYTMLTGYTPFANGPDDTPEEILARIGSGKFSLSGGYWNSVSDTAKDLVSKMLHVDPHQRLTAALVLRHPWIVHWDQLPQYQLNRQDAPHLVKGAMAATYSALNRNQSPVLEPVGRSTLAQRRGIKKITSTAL

NEK6(h) = molecular target: T4, NEK6(h) (Homo sapiens, UniProt Q9HC98); assay: Upstate kinase activity inhibition assay NEK6(h); format: biochemical; conditions: 40 min; read-out: percentage of enzyme activity that remains
T4 construct: purchased Upstate (KinaseProfiler service)

NLK (h) = NLK (h) (Homo sapiens, UniProt Q9UBE8); assay: Upstate kinase activity inhibition assay NLK (h); conditions: 40 min, read-out: percentage of enzyme activity that remains
MST1(h) = molecular target: T5, MST1(h) (Homo sapiens, UniProt Q13043); assay: Upstate kinase activity inhibition assay MST1(h); format: biochemical
T5 construct: purchased Upstate (KinaseProfiler service)

Ron(h) = molecular target: T6, Ron(h) (Homo sapiens, UniProt Q04912); assay: Upstate kinase activity inhibition assay Ron(h); format: biochemical; conditions: 40 min; read-out: percentage of enzyme activity that remains
T6 construct: purchased Upstate (KinaseProfiler service)
T6 sequence (Q04912 25-1400): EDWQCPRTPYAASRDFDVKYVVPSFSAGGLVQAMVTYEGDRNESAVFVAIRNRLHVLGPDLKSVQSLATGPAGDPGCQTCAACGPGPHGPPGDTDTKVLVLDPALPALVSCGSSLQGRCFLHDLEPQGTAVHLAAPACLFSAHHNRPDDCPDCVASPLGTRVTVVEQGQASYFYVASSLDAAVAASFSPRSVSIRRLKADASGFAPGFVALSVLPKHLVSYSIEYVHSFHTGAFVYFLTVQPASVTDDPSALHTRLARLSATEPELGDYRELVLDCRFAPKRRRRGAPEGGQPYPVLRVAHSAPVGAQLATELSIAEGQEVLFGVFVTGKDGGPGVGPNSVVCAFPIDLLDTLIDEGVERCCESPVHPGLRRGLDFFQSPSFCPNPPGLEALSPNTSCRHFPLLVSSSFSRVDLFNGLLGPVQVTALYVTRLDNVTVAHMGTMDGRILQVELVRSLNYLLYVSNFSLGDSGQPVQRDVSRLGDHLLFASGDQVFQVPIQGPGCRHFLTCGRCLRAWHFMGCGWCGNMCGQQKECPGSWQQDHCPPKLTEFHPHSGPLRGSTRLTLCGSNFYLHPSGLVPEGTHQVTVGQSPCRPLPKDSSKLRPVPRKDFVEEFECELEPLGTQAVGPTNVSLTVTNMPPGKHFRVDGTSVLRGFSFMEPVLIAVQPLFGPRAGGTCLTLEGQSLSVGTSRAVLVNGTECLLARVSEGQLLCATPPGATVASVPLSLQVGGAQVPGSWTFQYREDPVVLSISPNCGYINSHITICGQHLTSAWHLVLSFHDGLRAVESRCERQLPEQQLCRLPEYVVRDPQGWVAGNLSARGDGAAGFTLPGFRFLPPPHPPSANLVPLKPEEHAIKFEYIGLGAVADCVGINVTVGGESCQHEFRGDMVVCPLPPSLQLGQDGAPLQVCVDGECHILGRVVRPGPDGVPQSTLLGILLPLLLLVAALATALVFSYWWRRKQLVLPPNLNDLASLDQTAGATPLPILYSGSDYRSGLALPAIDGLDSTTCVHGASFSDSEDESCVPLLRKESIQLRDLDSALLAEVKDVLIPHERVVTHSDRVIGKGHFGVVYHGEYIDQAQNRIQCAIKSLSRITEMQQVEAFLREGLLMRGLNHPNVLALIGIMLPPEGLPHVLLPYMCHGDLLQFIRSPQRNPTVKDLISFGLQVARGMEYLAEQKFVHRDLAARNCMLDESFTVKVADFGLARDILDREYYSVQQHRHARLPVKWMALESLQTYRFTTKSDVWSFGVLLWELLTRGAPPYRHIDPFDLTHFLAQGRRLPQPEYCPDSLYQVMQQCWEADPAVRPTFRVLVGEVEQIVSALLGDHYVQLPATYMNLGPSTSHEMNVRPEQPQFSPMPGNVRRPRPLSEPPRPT

PKCα(h) = PKCα(h) (Homo sapiens, UniProt P17252); assay: Upstate kinase activity inhibition assay PKCα(h); conditions: 40 min, read-out: percentage of enzyme activity that remains
ErbB4(h) = ErbB4(h) (Homo sapiens, UniProt Q15303); assay: Upstate kinase activity inhibition assay ErbB4(h); conditions: 40 min, read-out: percentage of enzyme activity that remains
PTK5(h) = molecular target: T7, PTK5(h) (Homo sapiens, UniProt P42685); assay: Upstate kinase activity inhibition assay PTK5(h); format: biochemical; conditions: 40 min; read-out: percentage of enzyme activity that remains
T7 construct: purchased Upstate (KinaseProfiler service)

PRAK(h) = PRAK(h) (Homo sapiens, UniProt Q8IW41); assay: Upstate kinase activity inhibition assay PRAK(h); conditions: 40 min, read-out: percentage of enzyme activity that remains
PRAK(h), sequence (Q8IW41 whole entry): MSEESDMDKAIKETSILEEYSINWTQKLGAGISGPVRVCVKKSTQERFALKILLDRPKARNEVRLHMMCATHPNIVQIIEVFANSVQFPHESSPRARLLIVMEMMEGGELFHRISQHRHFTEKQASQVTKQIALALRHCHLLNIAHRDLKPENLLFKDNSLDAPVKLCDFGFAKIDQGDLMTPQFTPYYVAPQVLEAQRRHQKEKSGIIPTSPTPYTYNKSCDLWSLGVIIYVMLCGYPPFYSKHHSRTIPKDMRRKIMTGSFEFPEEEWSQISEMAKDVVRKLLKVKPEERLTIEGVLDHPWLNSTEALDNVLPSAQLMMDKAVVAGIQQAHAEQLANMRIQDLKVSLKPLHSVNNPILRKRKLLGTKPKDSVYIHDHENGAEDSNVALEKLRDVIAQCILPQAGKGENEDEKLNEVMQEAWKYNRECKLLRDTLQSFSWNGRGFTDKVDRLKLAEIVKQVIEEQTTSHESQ

## Cc1cc(Nc2cc(N3CCN(C)CC3)nc(Sc3ccc(NC(=O)C4CC4)cc3)n2)n[nH]1 [Compound E, Cyclopropane carboxylic acid {4-[4-(4-methyl-piperazin-1-yl)-6-(5-methyl-2H-pyrazol-3-ylamino)-pyrimidin-2-ylsulphanyl]-phenyl}-amide]
MSK2(h)
  remaining activity at 0.2 µM: 117%
  remaining activity at 4 µM: 97%
SGK2(h)
  remaining activity at 0.2 µM: 102%
  remaining activity at 4 µM: 102%
EphA7(h)
  remaining activity at 4 µM: 78%
Plk3(h)
  remaining activity at 0.2 µM: 107%
  remaining activity at 4 µM: 105%
MST3(h); 0.2 μM Compound E
  percentage of enzyme activity that remains: 97%
MST3(h); 4 μM Compound E
  percentage of enzyme activity that remains: 140%
PAK5(h)
  remaining activity at 0.2 µM: 93%
  remaining activity at 4 µM: 68%
Rsk3(h)
  remaining activity at 0.2 µM: 96%
  remaining activity at 4 µM: 60%
SAPK4(h)
  remaining activity at 0.2 µM: 96%
  remaining activity at 4 µM: 92%
PKCζ(h)
  remaining activity at 0.2 µM: 107%
  remaining activity at 4 µM: 97%
TSSK1(h)
  remaining activity at 0.2 µM: 122%
  remaining activity at 4 µM: 99%
Fer(h)
  remaining activity at 0.2 µM: 100%
  remaining activity at 4 µM: 48%
HIPK1(h)
  remaining activity at 0.2 µM: 100%
  remaining activity at 4 µM: 100%
PKCι(h)
  remaining activity at 0.2 µM: 100%
  remaining activity at 4 µM: 78%
EphB2(h); 0.2 μM Compound E
  percentage of enzyme activity that remains: 121%
EphB2(h); 4 μM Compound E
  percentage of enzyme activity that remains: 107%
Flt4(h)
  remaining activity at 4 µM: 10%
NEK7(h)
  remaining activity at 0.2 µM: 84%
  remaining activity at 4 µM: 83%
CK2(h)
  remaining activity at 0.2 µM: 100%
  remaining activity at 4 µM: 93%
SAPK3(h)
  remaining activity at 0.2 µM: 132%
  remaining activity at 4 µM: 115%
TrkB(h)
  remaining activity at 0.2 µM: 71%
  remaining activity at 4 µM: 1%
STK33(h)
  remaining activity at 0.2 µM: 112%
  remaining activity at 4 µM: 110%
Rsk2(h)
  remaining activity at 0.2 µM: 109%
  remaining activity at 4 µM: 82%
NEK6(h)
  remaining activity at 0.2 µM: 86%
  remaining activity at 4 µM: 85%
NLK (h)
  remaining activity at 0.2 µM: 105%
  remaining activity at 4 µM: 99%
MST1(h); 0.2 μM Compound E
  percentage of enzyme activity that remains: 88%
MST1(h); 4 μM Compound E
  percentage of enzyme activity that remains: 38%
Ron(h)
  remaining activity at 0.2 µM: 95%
  remaining activity at 4 µM: 48%
PKCα(h)
  remaining activity at 0.2 µM: 115%
  remaining activity at 4 µM: 105%
ErbB4(h)
  remaining activity at 0.2 µM: 53%
  remaining activity at 4 µM: 52%
PTK5(h)
  remaining activity at 0.2 µM: 97%
  remaining activity at 4 µM: 54%
PRAK(h)
  remaining activity at 0.2 µM: 114%
  remaining activity at 4 µM: 109%
